≈ marks a conversion by molar mass, not a printed value. Read-outs that look alike come from different tables or passages of the source.
Legend:
HDAC1 = HDAC1 (Homo sapiens, UniProt Q13547); assay: Enzyme inhibition activity, Fluor-de-Lys kit; assay type: biochemical
[1] = test system: HDAC from HeLa cell extract; assay: Irreversible HDAC inhibition, HeLa nuclear extracts; assay type: biochemical
Method: FIG. 1. HDAC-C1A irreversible activity. A. […] inhibitory activity of HDAC-C1A was tested using HeLa nuclear extracts and compared to the negative (reversible) control HDAC-C1B. B Growth inhibitory effect of the different compounds in HCT-116 cells at indicated time and compared to growth inhibitory after 72 hours of incubation.
HSP90 protein expression was not altered (FIG. 2).

KELLY = assay: Growth inhibition, SRB assay, 72 hours; assay type: cell-based; conditions: KELLY neuroblastoma
HCT116 xenograft = assay: [18F]FLT-PET tumour uptake; assay type: in vivo, mice
Method: FIG. 6. [18F]-FLT uptake at 24 h and 48 h following a single injection I.P. of HDAC-C1A at 40 mg/kg in HCT116 xenograft model. A. PET/CT (bottom) and corresponding CT (top) images of the [18]-FLT uptake. […] The tumour is indicated by an arrow. B. Area under the curve data. The results are the mean+/−SEM of at least 4 animals per group.
FIG. 13. […] A. relative tumour volume to day 1. […] B. Corresponding body weights throughout the course of the experiment. […] C. Time activity curve represent [18F]FLT uptake over 60 minutes. Results are mean of at least 3 animals. D. Area under the curve, [18F]FLT uptake in the tumour over 60 minutes. E. NUV60, [18F]FLT uptake in the tumour at 60 minutes. […] The levels of total AKT are represented as loading control.
FIG. 16. [18F]FLT uptake following treatment with BEZ235 and in combination with HDAC-C1A after 48 hours in a HCT116 xenograft model. Mice were treated with either BEZ235 alone at 20 mg/kg/day for 2 days P.O., with 1HDACC1A at 20 mg/kg/day for 2 days I.P. or with a combination HDAC-C1A (20 mg/kg/day for 1 or 2 days)+BEZ-235 (20 mg/kg/day for 1 or 2 days). BEZ235 was given first and 30 min later, mice received an injection of HDAC-C1A. A. time activity curve represent [18F]FLT uptake over 60 minutes. Results are mean of at least 3 animals. B. Area under the curve, [18F]FLT uptake in the tumour over 60 minutes. C. NUV60, [18F]FLT uptake in the tumour at 60 minutes. D. Cross section (axial plane) of mice representative of different treatment cohorts. The top pictures show [18F]FLT uptake pictures (PET/CT), the bottom represent the corresponding CT scan. The arrows point the tumour.
We also assessed the potential of [^18F]fluorothymidine positron emission tomography ([^18F]FLT-PET) to measure early response to HDAC-C1A treatment in HCT116 xenograft bearing mice (FIG. 6). There was a 2-fold decrease in tumour [^18F]FLT uptake in animals treated continuously for 48 h compared to vehicle treated controls; the area under the normalized [^18F]FLT time versus activity curve was 117±6.9 before treatment and decreased to 106±5.5 (P=0.02) at 24 hours and 54±5 (P=0.0001) at 48 hours after initiating treatment (FIG. 6.B).
The efficacy of the combination HDAC-C1A (20 mg/kg/day) and BEZ235 ([…]) could be monitored with [^18F]FLT-PET in HCT116 tumour bearing mice as early as 24H-48H. There was a 1.7-fold decrease in tumour [^18F]FLT uptake in animals treated continuously for 24 h-48 h compared to vehicle treated controls; the area under the normalized [^18F]FLT time versus activity curve was 542±17 before treatment and decreased to 312±22 (P=0.0002) at 24-48 hours after initiating treatment (FIG. 16.B).

ABC transporters = assay: Expression of ABC transporters (protein and mRNA) in tumours; assay type: in vivo, mice; conditions: 14 days of treatment
RAD51 = RAD51 mRNA and protein expression; assay type: cell-based; conditions: in vitro and in vivo
HCT116 cells = assay: Acetylated PTEN and PTEN expression; assay type: cell-based, human
Method: FIG. 12. HDAC-C1A treatment is associated with an increase of phopsho-AKT that can be reversed by PI3K/AKT/mTOR inhibitors. […] Similarly, Phospho-Pras 40 seems to increase following treatment with HDAC-C1A. Densitometry data could reinforce this statement (ratio between the total form and the Phospho form of Pras40 that decreases at 24 hours). […] No difference could be seen in endometrial cancer cell line, […]. C. […] E. BEZ-235 can fully reverse the increase of Phospho-AKT mediated by HDAC-C1A in HCT-116 cells. BEZ-235 and HDAC-C1A were co-incubated at the indicated time and concentrations.
FIG. 17. A. Dose and time impact of Tubastatin A on acetylated form of tubulin and histones H3 and H4 and on phospho-AKT levels that could be reversed with BEZ-235 in HCT-116 cells. […] HCT116 were immunoprecipitation with PTEN and stained with HDAC1 or HDAC6, immunoprecipitation with HDAC6 and stained with PTEN. No HDAC1 could have been detected in contrast with HDAC6. There was no effect of the different inhibitors on the different protein levels.
PTEN protein expression was not altered. In vivo, on the gene array, the mRNA levels of PTEN were not altered in HCT116 xenograft model following treatment with HDAC-C1A after 1 and 14 days when compared with vehicle treated group (FIG. 7).
We have shown that HDAC-C1A is associated with increased acetylation of α-tubulin, acetyl HSP90 and acetyl PTEN with only a minor effect on the regulation of the genes (less than 0.7% of the genes have been de-regulated after 14 days of treatment in vivo). We believe that the acetylation of PTEN, via the inhibition of HDAC6, leads to an increase of P-AKT. […] No effect of BEZ235 could be seen on the acetylated status of α-tubulin and histones H3 and H4.

[2] = test system: HCT116 human colon cancer xenograft
γH2AX = γH2AX foci formation (DNA damage marker); conditions: in vitro and in vivo
[3] = HDAC-C1A 20 mg/kg bid combined with API-2 1 mg/kg/d
[4] = HDAC-C1A combined with BEZ-235 20 mg/kg/day, given 8 hours apart

Sequence of HDAC1 (Q13547 whole entry): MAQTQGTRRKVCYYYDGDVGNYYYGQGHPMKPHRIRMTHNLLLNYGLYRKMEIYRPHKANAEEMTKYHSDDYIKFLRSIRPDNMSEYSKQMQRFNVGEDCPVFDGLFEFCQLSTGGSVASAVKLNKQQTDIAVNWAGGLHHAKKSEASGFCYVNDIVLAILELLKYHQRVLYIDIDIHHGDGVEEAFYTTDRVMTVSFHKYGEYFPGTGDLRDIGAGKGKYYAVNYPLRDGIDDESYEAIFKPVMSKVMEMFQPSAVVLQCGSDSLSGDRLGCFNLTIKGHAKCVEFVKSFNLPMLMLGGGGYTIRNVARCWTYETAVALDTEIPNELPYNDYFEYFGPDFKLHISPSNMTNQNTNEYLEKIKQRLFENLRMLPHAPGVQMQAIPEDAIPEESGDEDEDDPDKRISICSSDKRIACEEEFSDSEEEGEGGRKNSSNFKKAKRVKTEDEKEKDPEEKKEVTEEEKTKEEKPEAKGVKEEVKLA

SMILES: CC(/C=C/C(=O)NO)=C\c1ccc(NS(=O)(=O)c2ccc(N(CCCl)CCCl)cc2)cc1 [HDAC-C1A]
- fold more specific for HDAC6 compared with HDAC1 (HDAC1): approximately 17 fold
- mode of HDAC inhibition [1]: irreversibly inhibited
- GI50 (KELLY): 0.14 µg/mL (≈ 0.281 µM)
- [18F]FLT-PET in comparison to control animals (HCT116 xenograft; 48 H, HDAC-C1A 40 mg/kg combined with API-2 1 mg/kg): unremarkable
- area under the normalized [18F]FLT time versus activity curve (HCT116 xenograft; 24 hours after initiating treatment, 117±6.9 before treatment): 106±5.5
- area under the normalized [18F]FLT time versus activity curve (HCT116 xenograft; 48 hours after initiating treatment, 117±6.9 before treatment): 54±5
- fold decrease in tumour [18F]FLT uptake vs vehicle (HCT116 xenograft; HDAC-C1A 20 mg/kg/day combined with BEZ235 25 mg/kg/day, 24 h-48 h): 1.7 fold
- area under the normalized [18F]FLT time versus activity curve (HCT116 xenograft; HDAC-C1A combined with BEZ235, 24-48 hours, 542±17 before treatment): 312±22
- fold decrease in tumour [18F]FLT uptake vs vehicle (HCT116 xenograft; treated continuously for 48 h, 40 mg/kg): 2 fold
- expression of ABC transporters vs vehicle (ABC transporters): No difference
- RAD51 mRNA and protein expression (RAD51): did not increase
- PTEN protein expression (HCT116 cells): not altered
- acetyl form of PTEN (HCT116 cells; 4 h and 24 h, 1 μM and 10 μM): dose and time dependent increase
- TGD2x [2, 3]: 2.7 ± 1.3 days
- TGI compared with vehicle [2, 3]: 54%
- TGD2x ([2]; HDAC-C1A alone 20 mg/kg/day): 3.8 ± 1.3 days
- TGI ([2]; HDAC-C1A alone 20 mg/kg/day): 69%
- TGD2x [2, 4]: 8.2 ± 1.3 days
- TGI [2, 4]: 74%
- TGI ([2]; HDAC-C1A combined with BEZ-235, given 30 minutes apart): 115%
- TGD2x ([2]; i.p. 20 mg/kg b.i.d.): 5.7 ± 1.4 days
- TGI compared with vehicle ([2]; i.p. 20 mg/kg b.i.d.): 78%
- toxicity (body weight) ([2]; i.p. 20 mg/kg b.i.d.): non-toxic
- γH2AX foci formation (γH2AX): time and a dose dependent increase
